Laboratory results reported in US10907212B2, “Inhibitors of cell adhesion” (Regents of the University of Minnesota, priority 2016, dated 2021).
“Also recorded” adds a separate entry of the source. Where no end group is shown, it is not given here.

Key:
[1] = tested on: NIH:OVCAR5 control shRNA and NIH:OVCAR5-VB3 cells; experiment: Spheroid formation of cells pretreated with mitomycin C; assay type: cell-based, human; settings: data not shown
Procedure: (§1) Spheroids were formed from the NIH:OVCAR5 cell lines described above using the liquid overlay method. One milliliter of a single cell suspension was seeded at a concentration of 50,000 cells/ml in OptiMEM® media, into 24-well tissue culture plates coated with 0.5% Seakem agarose (in complete RPMI-1640). Plates were incubated at 37° C. in a humidified incubator with 5% CO2. At various time points up to 5 days, the plates were removed from the incubator and the spheroids were photographed with a Nikon CoolPix digital camera mounted on an Olympus CK2 inverted microscope with a 4× objective. The size of the spheroids was determined using the measure tool in Adobe Photoshop. The largest spheroids were quantified (20-90 spheroids/well), in a minimum of 8 wells, for a total of >300 spheroids per cell type.
Ovarian cancer is unique in that tumor cells commonly grow within the peritoneal cavity as free floating multi-cellular aggregates (spheroids) in the ascites fluid. […] Spheroids formed by both cell types appeared tightly aggregated, in contrast to previous results with the cell adhesion molecule claudin-4, where cells depleted of claudin-4 formed spheroids more slowly and the spheroids formed had increased paracellular permeability. […]

[2] = tested on: nectin 4 protein on NIH:OVCAR-5 cells; experiment: Effect of peptides on anti-Nectin-4 antibody binding to cells as determined by flow cytometry; assay type: cell-based, human; settings: for IgG MFI: IgG control primary antibody; for nectin-4 antibody binding compared to untreated control cells (in words): flow cytometry; for Flow binding: summary table, Nectin-4 antibody binding relative to control = 100
Procedure: Confluent monolayers of cells were detached from 75 cm^2 tissue culture flasks using Accutase cell dissociation buffer (Innovative Cell Technologies, San Diego, Calif.), washed, and labeled with mouse IgG or mAbs against Nectin-4 or Nectin-1 (2.5 μg/10^6 cells) in Flow Buffer [phosphate buffered saline (PBS) containing 2.5% newborn calf serum and 0.02% sodium azide] for 30 min at 4° C.. Cells were washed and incubated with goat anti-mouse IgG F(ab′)2 (Jackson ImmunoResearch, West Grove, Pa.), then washed again and incubated with streptavidin-allophycocyanin conjugate (Jackson ImmunoResearch, West Grove, Pa.) for 30 min each. Cells were washed and fixed in Flow Buffer containing 1% formaldehyde and analyzed in the University of Minnesota Flow Cytometry Resource with a BD Accuri™ C6 flow cytometer (BD Biosciences, San Jose, Calif.) using the Accuri™ software.
Briefly, NIH:OVCAR-5 cells that natively express a moderate amount of nectin 4 protein were incubated for 30 minutes in 150 μg/mL of soluble peptide in DMSO. After incubation, the cells were washed, and then triple antibody stained using mouse anti-nectin 4 (or IgG control) primary antibody, biotinylated goat anti-mouse secondary antibody, and streptavidin APC tertiary antibody. Finally, utilizing the University of Minnesota flow core's Accuri C6 flow cytometer, the relative antibody binding affinity for control and peptide-treated samples was quantitated and compared. Data was collected for each of the 57 peptides generated.

[3] = tested on: adhesion of NIH:OVCAR5-N4-over cells to recombinant human Nectin-1 extracellular domain; experiment: Inhibition of NIH:OVCAR5-N4-over cell adhesion to recombinant Nectin-1 by synthetic nectin peptides; assay type: cell-based; settings: 150 μg/ml peptide; 0.5 μg/well Nectin-1; 30 min adhesion; listed as N1-P20
Procedure: Black, clear-bottom 96-well microtiter plates (Corning, Imported Costar, Corning, N.Y.) were coated with recombinant human Nectin-1 extracellular domain (R&D Systems), recombinant human Nectin-4 extracellular domain (R&D Systems), mouse laminin (Invitrogen™), or bovine serum albumin (BSA; Probumin Diagnostic Grade, MilliPore) diluted in PBS. Covered plates were incubated overnight at 37° C. in a humidified incubator. After washing with PBS plus Ca^2+/Mg^2+ containing 2 mg/ml ovalbumin (Sigma-Aldrich), the plates were blocked for 1 hat 37° C. with 1% BSA in PBS without Ca^2+/Mg^2+. Confluent monolayers of NIH:OVCAR5 cells or NIH:OVCAR5-N4-over cells were detached with Accutase, and then filtered through a 40 μm cell strainer (BD Biosciences, San Jose, Calif.) to remove cell aggregates. The single cells were stained with CellTracker Green CMFDA (5-chloromethylfluorescein diacetate; Invitrogen™) according to the manufacturer's protocol. […] Plates were vigorously washed four times and read in a BioTek Synergy fluorescent microplate reader (BioTek, Winooski, V A). […]
Microtiter plates coated with recombinant Nectin-1 as described above were pre-incubated for 30 min at room temperature with 150 μg/ml Nectin-4 peptides in PBS in triplicate. CMFDA-stained NIH:OVCAR5-N4-over cells were then added to the wells and cell adhesion was quantified as described above. […]

[4] = tested on: ovarian cancer cell aggregation and spheroid formation; experiment: Spheroid assay for peptides (visual scale +1 to +5); assay type: cell-based, human; settings: visual scale of +1 to +5; for Spheroid-24: 24 hrs, Control = 2; for Spheroid-48: 48 hrs, Control = 4
Procedure: as §1
The clinical relevance is that by blocking the formation of spheroids, the cells will be more sensitive to chemotherapy (which targets the single cells that proliferate more rapidly than spheroids).
The spheroid assay for peptides 1-30 were scored using a visual scale of +1 to +5. The controls were scored at +2 (24 hrs) and +4 (48 hrs). […] It may be harder to visually assess the size at 24 hours, since the spheroids are relatively small, but and perhaps some of the peptides are affecting cell division, and that is why the spheroids are smaller than the controls at 48 hours, but not 24 hrs (this can be easily assayed with an MTT assay).

[5] = Run One, 150 μg/mL peptide, 30 minutes, Control 1 = 15,015
[6] = Run One, 150 μg/mL peptide, 30 minutes, Control 1 = 1,670
[7] = Run One, antibody binding relative to Control 1 = 100.00
[8] = Run Two, 150 μg/mL peptide, 30 minutes, Control 2 = 49,491
[9] = Run Two, antibody binding relative to Control 2 = 100.00

Compound: CO[C@@]12[C@H](COC(N)=O)C3=C(C(=O)C(C)=C(N)C3=O)N1C[C@@H]1N[C@@H]12 [mitomycin C]
- aggregation of cells in presence of mitomycin C ([1]; NIH:OVCAR5-VB3 cells with Nectin-4 knocked down by shRNA): No difference was observed
- spheroid size versus untreated control cells ([1]; shRNA control NIH:OVCAR5 cells, after 24 h): smaller than the untreated control cells

Compound: NWYLQRMDVKLTCK-NH2 (listed as Homo sapiens) [Peptide 49]
- N4 MFI/IgG MFI ([2]; Run Four, Control 4 = 9.387504873): 10.36
- IgG MFI ([2]; Run Four, Control 4 = 1,026): 29486
- nectin-4 antibody binding, percent of control ([2]; Run Four, antibody binding relative to Control 4 = 100): 3206
- nectin-4 antibody binding compared to untreated control cells (in words) ([2]; 150 μg/mL peptide): erroneous/outlier
- effect on cell adhesion to Nectin-1 (in words) [3]: to a greater extent than the mAb against Nectin-1; also recorded: complete inhibition

Compound: TCVVSHPGLLQDQR-NH2 (listed as Homo sapiens) [Peptide 17]
- N4 MFI [2, 5]: 20,511
- IgG MFI [2, 6]: 8,686
- N4 MFI/IgG MFI ([2]; Run One, Control 1 = 8.99): 2.36
- nectin-4 antibody binding, percent of control [2, 7]: 88.61
- Spheroid-24 [4]: 1
- Spheroid-48 [4]: 2

Compound: TGNGIYINGRGHLV-NH2 (listed as Homo sapiens) [Peptide 29]
- N4 MFI [2, 8]: 18,643
- N4 MFI/IgG MFI ([2]; Run Two, Control 2 = 9.46): 6.04
- IgG MFI ([2]; Run Two, Control 2 = 5,233): 3,087
- nectin-4 antibody binding, percent of control [2, 9]: 35.15
- nectin-4 antibody binding compared to untreated control cells (in words) ([2]; 150 μg/mL peptide): reduction in nectin-4 antibody binding
- Flow binding [2]: 35%
- Spheroid-24 [4]: 3

Compound: TTEHSGIYVCHVSN-NH2 (listed as Homo sapiens) [Peptide 24]
- N4 MFI [2, 8]: 33,353
- N4 MFI/IgG MFI ([2]; Run Two, Control 2 = 9.46): 8.76
- IgG MFI ([2]; Run Two, Control 2 = 5,233): 3,808
- nectin-4 antibody binding, percent of control [2, 9]: 66.76
- Spheroid-48 [4]: 3

Compound: VDVLDPQEDSGKQV-NH2 (listed as Homo sapiens) [Peptide 26]
- N4 MFI [2, 8]: 35,299
- N4 MFI/IgG MFI ([2]; Run Two, Control 2 = 9.46): 8.92
- IgG MFI ([2]; Run Two, Control 2 = 5,233): 3,956
- nectin-4 antibody binding, percent of control [2, 9]: 70.82
- Spheroid-24 [4]: 1
- Spheroid-48 [4]: 2

Compound: VSPAYEGRVEQPPP-NH2 (listed as Homo sapiens) [Peptide 6]
- N4 MFI [2, 5]: 12,682
- IgG MFI [2, 6]: 1,622
- N4 MFI/IgG MFI ([2]; Run One, Control 1 = 8.99): 7.82
- nectin-4 antibody binding, percent of control [2, 7]: 82.88
- Spheroid-24 [4]: 1
- Spheroid-48 [4]: 2

Compound: VVLGQDAKLPCFYR-NH2 (listed as Homo sapiens) [Peptide 2]
- N4 MFI [2, 5]: 11,895
- IgG MFI [2, 6]: 2,458
- N4 MFI/IgG MFI ([2]; Run One, Control 1 = 8.99): 4.84
- nectin-4 antibody binding, percent of control [2, 7]: 70.72
- Spheroid-48 [4]: 3

Compound: WTRLDGPLPSGVRV-NH2 (listed as Homo sapiens) [Peptide 22]
- N4 MFI [2, 8]: 70,336
- N4 MFI/IgG MFI ([2]; Run Two, Control 2 = 9.46): 9.82
- IgG MFI ([2]; Run Two, Control 2 = 5,233): 7,160
- nectin-4 antibody binding, percent of control [2, 9]: 142.74
- nectin-4 antibody binding compared to untreated control cells (in words) ([2]; 150 μg/mL peptide): increased nectin-4 antibody binding
- Flow binding [2]: 143%
- Spheroid-24 [4]: 1
- Spheroid-48 [4]: 3

Compound: WTRLDGPLPSGVRVDGDT-NH2 (listed as Homo sapiens) [Peptide 28]
- N4 MFI [2, 8]: 41,302
- N4 MFI/IgG MFI ([2]; Run Two, Control 2 = 9.46): 10.83
- IgG MFI ([2]; Run Two, Control 2 = 5,233): 3,815
- nectin-4 antibody binding, percent of control [2, 9]: 84.70
- Spheroid-48 [4]: 2

Compound: WTTLNGSLPKGVEAQNRT-NH2 (listed as Homo sapiens) [Peptide 57]
- N4 MFI ([2]; Run Five, 150 μg/mL peptide, 30 minutes, Control 5 = 17,768.90): 14,705.92
- N4 MFI/IgG MFI ([2]; Run Five, Control 5 = 2.142155332): 1.874
- IgG MFI ([2]; Run Five, Control 5 = 8,294.87): 7,848.89
- nectin-4 antibody binding, percent of control ([2]; Run Five, antibody binding relative to Control 5 = 100): 72.38
- nectin-4 antibody binding compared to untreated control cells (in words) ([2]; 150 μg/mL peptide): reduction in nectin-4 antibody binding
- Spheroid-48 [4]: 3

Compound: YRGDSGEQVGQVAW-NH2 (listed as Homo sapiens) [Peptide 3]
- N4 MFI [2, 5]: 6,987
- IgG MFI [2, 6]: 2,044
- N4 MFI/IgG MFI ([2]; Run One, Control 1 = 8.99): 3.42
- nectin-4 antibody binding, percent of control [2, 7]: 37.04
- nectin-4 antibody binding compared to untreated control cells (in words) ([2]; 150 μg/mL peptide): reduction in nectin-4 antibody binding
- Flow binding [2]: 37%
- Spheroid-48 [4]: 2
